The subject of one assay is PC9/ER cells. Briefly: Cell viability assay (CellTiter-Glo 2.0), erlotinib-resistant PC9/ER cells. The assay is classed as cell-based. To be noted: Homo sapiens, PC-9/ER, 72 h drug treatment, read-out: Relative cell viability, IC50 PC9ER. The source says:
(§1) To explore c-MET and AXL mechanisms of EGFR TKI resistance, resistant cells of the EGFR TKI hypersensitive EGFR exon 19 mutant NSCLC cell line, HCC827 and PC9 were generated by exposing these cells to increasing concentrations of EGFR TKI for over 3 months.
(§2) Gefitinib-resistant cells were referred to as HCC827/GR. […] Osimertinib-resistant cells were referred to as HCC827/OR.
Background: Cellular ATP, detected with luciferase, serves as a proxy for viable cell number.

A further assay deals with HCC827/GR cells. The experiment in a line: Cell viability assay (CellTiter-Glo 2.0), gefitinib-resistant HCC827/GR cells. The assay is classed as cell-based, human. To be noted: Homo sapiens, HCC827, 72 h drug treatment, read-out: Relative cell viability, IC50 HCC827GR.
Text: as §1
The human cell line HCC827 was purchased from the American Type Culture Collection (Manassas, VA), and the PC9 cell line was obtained from RIKEN Cell Bank (Ibaraki, Japan). […] Gefitinib-resistant cells were referred to as HCC827/GR. […] Osimertinib-resistant cells were referred to as HCC827/OR.
(§3) Cell viability assays were carried out by plating 1,000 cells per well of HCC827 or PC9 resistant cells, respectively, into white transparent-bottom 384-well plates. The cells were treated with each TKI across a 10-dose range from 1 nM to 10,000 nM. After 72 h of drug treatment, cell viability was measured using the CellTiter-Glo 2.0 assay (Promega, Madison, WI).
as §3

The next assay relates to HCC827/ER cells. The experiment in a line: Cell viability assay (CellTiter-Glo 2.0), erlotinib-resistant HCC827/ER cells. In kind it is cell-based, human. The conditions noted are these: Homo sapiens, HCC827ER, read-out: Relative cell viability.
Text: as §1, §2

The next assay relates to HCC827/OR cells. Briefly: Cell viability assay (CellTiter-Glo 2.0), osimertinib-resistant HCC827/OR cells. The assay is classed as cell-based, human. The conditions noted are these: Homo sapiens, HCC827, 72 h drug treatment, read-out: Relative cell viability, IC50 HCC827OR.
Text: as §1, §2

Where [1] appears, read: Table 4, combinations of EGFR TKIs and inhibitor of Formula (I).
The mark [2] stands for this setting: Table 4, 72 h drug treatment, combinations of EGFR TKIs and inhibitor of Formula (I).
Setting [3] is: Table 2, EGFR TKI resistant cells, combination with EGFR TKI.
Where [4] appears, read: Table 2, 72 h drug treatment, EGFR TKI resistant cells, combination with EGFR TKI.

Like-named read-outs stand apart in the source and are kept apart here.

As to `Nc1nccc(Oc2ccc(NC(=O)c3cn(C4CCOCC4)c(=O)n(-c4ccc(F)cc4)c3=O)cc2F)c1C#CCC1CCNCC1` [Example 59, N-(4-(2-amino-3-(3-(piperidin-4-yl)prop-1-ynyl)pyridin-4-yloxy)-3-fluorophenyl)-3-(4-fluorophenyl)-2,4-dioxo-1-(tetrahydro-2H-pyran-4-yl)-1,2,3,4-tetrahydropyrimidine-5-carboxamide], the IC50 with PC9/ER cells (setting [1]), with HCC827/GR cells (setting [1]), with HCC827/ER cells (setting [2]) and with HCC827/OR cells (setting [1]) was less than 1000 nM throughout.

For `COCCN1CCN(C(=O)CCc2c(Oc3ccc(NC(=O)c4cn(C(C)C)c(=O)n(-c5ccc(F)cc5)c4=O)cc3F)ccnc2N)CC1` [Example 21, N-(4-(2-amino-3-(3-(4-(2-methoxyethyl)piperazin-1-yl)-3-oxopropyl)pyridin-4-yloxy)-3-fluorophenyl)-3-(4-fluorophenyl)-1-isopropyl-2,4-dioxo-1,2,3,4-tetrahydropyrimidine-5-carboxamide], the IC50 was less than 1000 nM in the assay on PC9/ER cells (setting [3]), less than 100 nM in the assay on HCC827/GR cells (setting [3]), less than 1000 nM in the assay on HCC827/ER cells (setting [4]) and less than 1000 nM in the assay on HCC827/OR cells (setting [3]).

Regarding `CC(C)n1cc(C(=O)Nc2ccc(Oc3ccnc(N)c3C#CCC3CCNCC3)c(F)c2)c(=O)n(-c2ccc(F)cc2)c1=O` [Example 27, N-(4-(2-amino-3-(3-(piperidin-4-yl)prop-1-ynyl)pyridin-4-yloxy)-3-fluorophenyl)-3-(4-fluorophenyl)-1-isopropyl-2,4-dioxo-1,2,3,4-tetrahydropyrimidine-5-carboxamide], the IC50 in the assay with PC9/ER cells (setting [3]), in the assay with HCC827/GR cells (setting [3]), in the assay on HCC827/ER cells (setting [4]) and in the assay with HCC827/OR cells (setting [3]) was less than 10 nM throughout.

Regarding `CN1CCC(CC#Cc2c(Oc3ccc(NC(=O)c4c[nH]c(=O)n(-c5ccc(F)cc5)c4=O)cc3F)ccnc2N)CC1` [Example 54, N-(4-(2-amino-3-(3-(1-methylpiperidin-4-yl)prop-1-ynyl)pyridin-4-yloxy)-3-fluorophenyl)-3-(4-fluorophenyl)-2,4-dioxo-1,2,3,4-tetrahydropyrimidine-5-carboxamide], the IC50 with PC9/ER cells (setting [1]), with HCC827/GR cells (setting [1]), with HCC827/ER cells (setting [2]) and with HCC827/OR cells (setting [1]) was less than 1000 nM in each case.

For `CC(C)n1cc(C(=O)Nc2ccc(Oc3ccnc(N)c3C#CC(=O)N3CCNCC3)c(F)c2)c(=O)n(-c2ccc(F)cc2)c1=O` [Example 1, N-(4-(2-amino-3-(3-oxo-3-(piperazin-1-yl)prop-1-ynyl)pyridin-4-yloxy)-3-fluorophenyl)-3-(4-fluorophenyl)-1-isopropyl-2,4-dioxo-1,2,3,4-tetrahydropyrimidine-5-carboxamide], the IC50 with PC9/ER cells (setting [3]), in the assay on HCC827/GR cells (setting [3]), in the assay on HCC827/ER cells (setting [4]) and with HCC827/OR cells (setting [3]) was less than 10 nM throughout.

With `CN1CCC(CC#Cc2c(Oc3ccc(NC(=O)c4cn(CC(=O)N(C)C)c(=O)n(-c5ccc(F)cc5)c4=O)cc3F)ccnc2N)CC1` [Example 37, N-(4-((2-amino-3-(3-(1-methylpiperidin-4-yl)prop-1-yn-1-yl)pyridin-4-yl)oxy)-3-fluorophenyl)-1-(2-(dimethylamino)-2-oxoethyl)-3-(4-fluorophenyl)-2,4-dioxo-1,2,3,4-tetrahydropyrimidine-5-carboxamide], the IC50 in the assay on PC9/ER cells (setting [1]), in the assay on HCC827/GR cells (setting [1]), in the assay on HCC827/ER cells (setting [2]) and in the assay on HCC827/OR cells (setting [1]) was less than 10000 nM throughout.

For `Nc1nccc(Oc2ccc(NC(=O)c3c[nH]c(=O)n(-c4ccc(F)cc4)c3=O)cc2F)c1C#CCC1CCNCC1` [Example 53, N-(4-(2-amino-3-(3-(piperidin-4-yl)prop-1-ynyl)pyridin-4-yloxy)-3-fluorophenyl)-3-(4-fluorophenyl)-2,4-dioxo-1,2,3,4-tetrahydropyrimidine-5-carboxamide], the IC50 in the assay with PC9/ER cells (setting [1]) was less than 10000 nM; with HCC827/GR cells (setting [1]) it was less than 10000 nM; in the assay on HCC827/ER cells (setting [2]), less than 1000 nM; in the assay with HCC827/OR cells (setting [1]), less than 10000 nM.

`Cc1nc(Cn2cc(C(=O)Nc3ccc(Oc4ccnc(N)c4C#CCN4CCOCC4)c(F)c3)c(=O)n(-c3ccc(F)cc3)c2=O)cs1` [Example 40, N-(4-((2-amino-3-(3-morpholinoprop-1-yn-1-yl)pyridin-4-yl)oxy)-3-fluorophenyl)-3-(4-fluorophenyl)-1-((2-methylthiazol-4-yl)methyl)-2,4-dioxo-1,2,3,4-tetrahydropyrimidine-5-carboxamide]: the IC50 is less than 100 nM in the assay with PC9/ER cells (setting [1]), less than 100 nM in the assay on HCC827/GR cells (setting [1]), less than 100 nM with HCC827/ER cells (setting [2]) and less than 1000 nM with HCC827/OR cells (setting [1]).

As for `COCCN1CCN(C(=O)/C=C/c2c(Oc3ccc(NC(=O)c4cn(C(C)C)c(=O)n(-c5ccc(F)cc5)c4=O)cc3F)ccnc2N)CC1` [Example 4, (E)-N-(4-(2-amino-3-(3-(4-(2-methoxyethyl)piperazin-1-yl)-3-oxoprop-1-enyl)pyridin-4-yloxy)-3-fluorophenyl)-3-(4-fluorophenyl)-1-isopropyl-2,4-dioxo-1,2,3,4-tetrahydropyrimidine-5-carboxamide], the IC50 is less than 1000 nM in the assay with PC9/ER cells (setting [3]), less than 10 nM with HCC827/GR cells (setting [3]), less than 10 nM in the assay on HCC827/ER cells (setting [4]) and less than 10 nM in the assay with HCC827/OR cells (setting [3]).

Consider `C=CCn1cc(C(=O)Nc2ccc(Oc3ccnc(N)c3C#CCC3CCN(C)CC3)c(F)c2)c(=O)n(CC=C)c1=O` [Example 69, 1,3-diallyl-N-(4-(2-amino-3-(3-(1-methylpiperdin-4-yl)prop-1-ynyl)pyridin-4-yloxy)-3-fluorophenyl)-2,4-dioxo-1,2,3,4-tetrahydropyrimidine-5-carboxamide], for which the IC50 in the assay on PC9/ER cells (setting [1]), in the assay on HCC827/GR cells (setting [1]), in the assay on HCC827/ER cells (setting [2]) and in the assay on HCC827/OR cells (setting [1]) was less than 1000 nM each time.

Take `Cc1nc(Cn2cc(C(=O)Nc3ccc(Oc4ccnc(N)c4C#CC(C)(C)N4CCN(C)CC4)c(F)c3)c(=O)n(-c3ccc(F)cc3)c2=O)cs1` [Example 42, N-(4-((2-amino-3-(3-methyl-3-(4-methylpiperazin-1-yl)but-1-yn-1-yl)pyridin-4-yl)oxy)-3-fluorophenyl)-3-(4-fluorophenyl)-1-((2-methylthiazol-4-yl)methyl)-2,4-dioxo-1,2,3,4-tetrahydropyrimidine-5-carboxamide]: the IC50 in the assay on PC9/ER cells (setting [1]) was less than 1000 nM; with HCC827/GR cells (setting [1]), less than 100 nM; with HCC827/ER cells (setting [2]) it was less than 100 nM; with HCC827/OR cells (setting [1]), less than 1000 nM.

Take `C=CCn1cc(C(=O)Nc2ccc(Oc3ccnc(N)c3C#CC(C)(C)N3CCN(C)CC3)c(F)c2)c(=O)n(CC=C)c1=O` [Example 68, 1,3-diallyl-N-(4-(2-amino-3-(3-methyl-3-(4-methylpiperazin-1-yl)but-1-ynyl)pyridin-4-yloxy)-3-fluorophenyl)-2,4-dioxo-1,2,3,4-tetrahydropyrimidine-5-carboxamide]: the IC50 in the assay with PC9/ER cells (setting [1]) is less than 10000 nM; in the assay on HCC827/GR cells (setting [1]), less than 1000 nM; in the assay on HCC827/ER cells (setting [2]), less than 1000 nM; in the assay with HCC827/OR cells (setting [1]), less than 1000 nM.

Consider `Cn1nc(C(=O)Nc2ccc(Oc3ccnc(N)c3C#CC(C)(C)N3CCNCC3)c(F)c2)c(=O)n(-c2ccc(F)cc2)c1=O` [Example 47, N-(4-(2-amino-3-(3-methyl-3-(piperazin-1-yl)but-1-ynyl)pyridin-4-yloxy)-3-fluorophenyl)-4-(4-fluorophenyl)-2-methyl-3,5-dioxo-2,3,4,5-tetrahydro-1,2,4-triazine-6-carboxamide], for which the IC50 in the assay with PC9/ER cells (setting [1]), in the assay with HCC827/GR cells (setting [1]), in the assay on HCC827/ER cells (setting [2]) and in the assay with HCC827/OR cells (setting [1]) was less than 10000 nM each time.

As for `Nc1nccc(Oc2ccc(NC(=O)c3c[nH]c(=O)n(-c4ccc(F)cc4)c3=O)cc2F)c1C#CCN1CCOCC1` [Example 51, N-(4-(2-amino-3-(3-morpholinoprop-1-ynyl)pyridin-4-yloxy)-3-fluorophenyl)-3-(4-fluorophenyl)-2,4-dioxo-1,2,3,4-tetrahydropyrimidine-5-carboxamide], the IC50 in the assay on PC9/ER cells (setting [1]) is less than 1000 nM; in the assay with HCC827/GR cells (setting [1]) it was less than 10000 nM; in the assay on HCC827/ER cells (setting [2]), less than 1000 nM; in the assay with HCC827/OR cells (setting [1]), less than 1000 nM.

For `C=CCn1cc(C(=O)Nc2ccc(Oc3ccnc(N)c3C#CC(C)(C)N3CCOCC3)c(F)c2)c(=O)n(CC=C)c1=O` [Example 70, 1,3-diallyl-N-(4-(2-amino-3-(3-methyl-3-morpholinobut-1-ynyl)pyridin-4-yloxy)-3-fluorophenyl)-2,4-dioxo-1,2,3,4-tetrahydropyrimidine-5-carboxamide], the IC50 was less than 10000 nM in the assay with PC9/ER cells (setting [1]), less than 1000 nM with HCC827/GR cells (setting [1]), less than 1000 nM in the assay on HCC827/ER cells (setting [2]) and less than 1000 nM in the assay on HCC827/OR cells (setting [1]).
